# From the supplement of paper PMC10307832
# How the values were obtained:
# Assay in all cases: relative viability (nuclei count vs DMSO), 5 days (fraction); higher = more cells survive
# [1] = compound: N=C1NC(=O)/C(=C/c2ccc(O)cc2)S1 [Mirin] + NC(=O)Nc1cc(-c2cccc(F)c2)sc1C(=O)N[C@H]1CCCNC1 [AZD7762] (partner 0.2 µM)
# In short: (§1)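 Nuclei were stained with Hoechst during a one-step fixation (final 0.05% Triton X-100, 1% formaldehyde, 1 ug/ml Hoechst) carried out 5 days after dosing, then counted on 4× images. The cells, lung cancer lines in 1536-well plates, had been dosed by pin tool the day after seeding with one drug alone or a fixed anchor-drug dose plus five library-drug doses (not always all listed) in √10 steps. Relative viability is the nuclei count in treated wells divided by that in vehicle wells, and each value is the median of duplicate plates.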
# [2] = compound: CCn1c(-c2nonc2N)nc2cnc(Oc3cccc(NC(=O)c4ccc(OCCN5CCOCC5)cc4)c3)cc21 + Cc1cc(Nc2cc(N3CCN(C)CC3)nc(Sc3ccc(NC(=O)C4CC4)cc3)n2)n[nH]1 [Tozasertib] (partner 0.1 µM)
# In short: as §1
# [3] = compound: CCC1=CN=CN=C1N2CCN(CC2)CC3=NC4=C(N3)C=C(C=C4)C(F)(F)F + Cc1cc(Nc2cc(N3CCN(C)CC3)nc(Sc3ccc(NC(=O)C4CC4)cc3)n2)n[nH]1 [Tozasertib] (partner 0.1 µM)
# In short: as §1
# [4] = compound: CCn1c(-c2nonc2N)nc2cnc(Oc3cccc(NC(=O)c4ccc(OCCN5CCOCC5)cc4)c3)cc21 + CCNC(=O)c1noc(-c2cc(C(C)C)c(O)cc2O)c1-c1ccc(CN2CCOCC2)cc1 [Luminespib] (partner 0.01 µM)
# In short: as §1
Cell Line,relative viability ([1]; first compound 0.25 µM),relative viability ([1]; first compound 0.7906 µM),relative viability ([1]; first compound 2.5 µM),relative viability ([1]; first compound 7.906 µM),relative viability ([1]; first compound 25 µM),relative viability ([2]; first compound 0.04 µM),relative viability ([2]; first compound 0.1265 µM),relative viability ([2]; first compound 0.4 µM),relative viability ([2]; first compound 1.265 µM),relative viability ([2]; first compound 4 µM),relative viability ([3]; first compound 0.04 µM),relative viability ([3]; first compound 0.1265 µM),relative viability ([3]; first compound 0.4 µM),relative viability ([3]; first compound 1.265 µM),relative viability ([3]; first compound 4 µM),relative viability ([4]; first compound 0.04 µM),relative viability ([4]; first compound 0.1265 µM),relative viability ([4]; first compound 0.4 µM),relative viability ([4]; first compound 1.265 µM),relative viability ([4]; first compound 4 µM)
NCI-H1651,0.424,0.598,0.532,0.308,0.477,0.556,0.733,0.718,0.528,0.334,0.82,0.728,0.687,0.583,0.714,0.843,1.14,0.71,0.689,0.491
HARA,0.257,,0.47,0.423,0.353,0.11,0.0979,0.093,0.13,0.0876,0.106,0.108,0.0892,,0.0831,0.839,1.18,0.682,0.801,0.678
NCI-H1944,0.555,0.569,0.537,0.381,0.381,0.248,0.279,0.273,0.228,0.213,0.269,0.249,0.212,0.218,0.223,0.575,0.728,0.765,0.675,0.56
NCI-H2405,0.747,,0.798,0.734,0.599,0.874,0.794,0.345,0.224,0.24,0.779,0.759,0.741,,0.685,0.735,0.49,0.219,0.217,0.214
201T,0.581,0.754,0.673,0.441,0.552,1.02,0.937,0.958,0.919,1.01,0.923,0.936,0.9,0.846,0.919,1.1,1.02,1.05,1.06,1.07
PC-3 [JPC-3],0.88,0.782,0.896,0.843,0.989,0.94,0.866,1.03,0.861,0.77,0.883,0.814,0.844,0.886,0.776,0.849,0.73,0.718,0.726,0.626
NCI-H838,0.984,1.05,0.907,0.915,1.06,0.259,0.277,0.237,0.196,0.174,0.278,0.253,0.306,0.24,0.268,0.366,0.235,0.252,0.2,0.208
NCI-H2342,0.581,0.451,0.487,,0.459,0.599,0.561,0.463,0.437,0.425,0.467,0.428,0.571,0.333,0.398,0.763,0.847,0.715,0.665,0.785
